Each block holds one compound with its values, some of them ahead of it.
Tests used:
15N-labelled EcDsbA = target: T1, 15N-labelled EcDsbA (Escherichia coli, UniProt P0AEG4); experiment: 2D 1H-15N HSQC chemical shift perturbation / titration; type: binding; conditions: for Ligand Efficiency: LE = −RTln(KD)/HAC, 298 K; for fold decrease in binding affinity: relative to 25
T1 construct: made in house; protein recovered from the periplasm of the expressing cells
Method: Compounds that passed at least one ligand-detected NMR experiment were further validated by 2D ^1H-^15N heteronuclear single quantum coherence (HSQC) spectroscopy. In HSQC experiments, chemical shift perturbations (CSP) of backbone amide resonances of ^15N-labelled EcDsbA were measured upon addition of compound at 1 mM. […] In accordance with the crystal structure, the majority of the residues perturbed by 1 mM of benzofuran analogues in single-point HSQCs are located around the hydrophobic groove which is an important binding site for DsbA substrates (Figure 2A). […] Eight compounds produced large enough CSP (>0.04 ppm) to enable HSQC titration and KD determination.
For the 2D ^1H-^15N-HSQC titration experiment, 100 µM of ^15N-labelled EcDsbA in a buffer of 50 mM HEPES, pH 6.8, 50 mM NaCl, 2% ^2H6-DMSO, and 10% ^2H2O, was titrated with increasing concentrations of compounds ([…], 0.125, 0.25, 0.5, and 1 mM). Data were acquired on a Bruker 600 MHz spectrometer equipped with a 5 mm TXI CryoProbe and a Bruker 700 MHz spectrometer equipped with a 5 mm TXI CryoProbe. Data was processed by Topspin3.5 (Bruker) and analysed by Sparky (T. D. Goddard and D. G. Kneller, SPARKY 3, University of California, San Francisco (UCSF)). Weighted chemical shift perturbations (CSP) that were observed upon addition of compounds to EcDsbA were calculated using an Equation (1) in [41]: (1) CSP=ΔδH^2+(0.2×ΔδN)^2 where ΔδH and ΔδN denote the change in chemical shift of amide proton and nitrogen resonances upon addition of the compound. Equilibrium dissociation constants (KD) were determined by fitting the plot of CSP against compound concentrations using one site with ligand depletion model (Equation (2)): (2) CSP=CSPmax×[(KD+Pt+Lt)−((KD+Pt+Lt)^2−4×Pt×Lt)]/2×Pt where CSP is the measured CSP at a given concentration, CSPmax is the CSP observed at the saturating concentration of compound, and Pt and Lt are the total protein and compound concentrations. The ligand efficiency (LE) is calculated using the Equation (3) in [42]: (3) LE=−ΔG/HAC=−RTln(KD)/HAC where R is gas constant (1.9858775 cal K^−1 mol^−1), T is temperature (298 K), KD is equilibrium dissociation constant, and HAC is the number of heavy (non-hydrogen) atoms.

EcDsbA [1] = target: T2, EcDsbA (Escherichia coli, UniProt P0AEG4); experiment: Compound soaking into EcDsbA crystals and X-ray diffraction; type: binding; conditions: crystals soaked with compound at 10 mM (5% DMSO) for 3–6 h
T2 construct: made in house; protein recovered from the periplasm of the expressing cells
T2 sequence (P0AEG4 20-208): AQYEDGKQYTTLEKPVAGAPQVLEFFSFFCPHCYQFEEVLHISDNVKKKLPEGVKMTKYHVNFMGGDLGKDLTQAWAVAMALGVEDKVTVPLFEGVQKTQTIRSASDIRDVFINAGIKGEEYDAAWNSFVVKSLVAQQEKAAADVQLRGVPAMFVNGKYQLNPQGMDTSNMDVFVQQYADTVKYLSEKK
Excerpt: The synthesised analogues were soaked into crystals of EcDsbA and X-ray diffraction data was collected for each analogue in order to determine their site of binding. […] The carboxy moiety of 15 was oriented towards the left-hand side of the binding groove, where more polar residues are located. The phenyl ring of the aniline moiety occupied the hydrophobic end of the binding pocket with the nitrogen atom of the amine linker positioned in close proximity to Gln35. […] Although anisidine 16 was occupying a larger region of the EcDsbA binding groove, the shift appeared to have interrupted the π-stacking interactions the benzofuran was making with the His32 side chain previously (Figure 1B and Figure S1).
EcDsbA was crystallised as previously described. Briefly, 1 µL of 30 mg/mL EcDsbA was mixed with an equal volume of crystallisation buffer (11–13% PEG8000, 5–7.5% glycerol, 1 mM CuCl2, 100 mM, sodium cacodylate pH 6.1) and equilibrated against 500 µL of reservoir buffer at 20 °C using hanging drop vapour diffusion. For compound soaking, crystals were transferred into 2 µL drops of 24% PEG8000, 22% glycerol, and 100 mM sodium cacodylate (pH 6.1) containing a compound of interest at the final concentration of 10 mM (5% DMSO) and were incubated for 3–6 h. Crystals were mounted on loops and flash-cooled in liquid nitrogen.
Datasets were collected at the Australian synchrotron on MX1 and MX2 beamlines using the Blue-Ice software (Irvine, CA, USA). MX1 beamline was equipped with an ADSC Quantum 210r detector and MX2 with an ADSC Quantum 315r detector. All datasets were indexed and integrated with iMOSFLM [32] or XDS [33]—and scaled using AIMLESS [34, 35] or SCALA [36]. Phasing was performed by molecular replacement with Phaser using the previously solved structure of EcDsbA as a search model (PDB code 1FVK). The final structure was obtained after several rounds of manual model building using Coot and refinement in phenix.refine. Structures, factors and coordinates have been deposited in the Protein Data Bank (PDB; http://www.pdb.org) under the accession codes of 6PMF, 6POQ, 6POH, 6PML, 6PVY, 6POI, and 6PVZ.

EcDsbA [2] = target: T2, EcDsbA; experiment: CPMG ligand-detected NMR binding; conditions: compound 500 µM, unlabelled EcDsbA 10 µM, 298 K, spin-lock 350 ms
Excerpt: (§1) To validate the binding of benzofuran analogues, three ligand-detected NMR methods, saturation-transfer difference (STD), Carr–Purcell–Meiboom–Gill (CPMG), and water–ligand observed via gradient spectroscopy (waterLOGSY), were employed to detect protein-ligand binding between the benzofurans and EcDsbA (Figure 2C). These experiments were designed as a primary screening tool to select analogues to undergo further affinity evaluation and prioritise compounds for crystal soaking. […] In a good agreement with this finding, eight out of nine benzofurans that passed all three ligand-detected experiments have their co-crystal structures successfully solved; in contrast, five compounds that failed two ligand-detected experiments only have one co-structure solved (Table 2).
(§2) For ligand-detected NMR spectroscopy, two samples (compound alone and compound + protein) were prepared for each compound. Unlabelled EcDsbA was prepared at 10 µM in a buffer of 50 mM sodium phosphate, pH 6.8, 25 mM NaCl, 100 µM 4,4-dimethyl 4-silapentane-1-sulfonic acid (DSS), and 10% ^2H2O. Compound was added to the protein sample to achieve final concentration of 500 µM (2% ^2H6-DMSO). ^1H 1D spectrum was acquired for each compound at 500 µM as a reference spectrum. All ligand-detected NMR experiments (STD, CPMG, and waterLOGSY) were acquired at 298 K on a Bruker Avance III 600 MHz NMR spectrometer equipped with a 5 mm TXI CryoProbe (Bruker, Billerica, MA, USA). STD spectra were acquired with 3 s of saturation at 1 ppm (on-resonance) and 33.3 ppm (off-resonance). WaterLOGSY spectra were acquired for compound alone and compound + protein with a 0.52 s acquisition time, 3 s relaxation delay, and 3 s Nuclear Overhauser effect (NOE) mixing time. CPMG spectra for compound alone and compound + protein were acquired with a constant spin echo delay of 1 ms and spin-lock period of 350 ms. The data was analysed using Topspin3.5 (Bruker) and DSS was used to reference the spectra.

EcDsbA [3] = target: T2, EcDsbA; experiment: STD ligand-detected NMR binding; conditions: compound 500 µM, unlabelled EcDsbA 10 µM, 298 K
Excerpt: as §1, §2

EcDsbA [4] = target: T2, EcDsbA; experiment: waterLOGSY ligand-detected NMR binding; conditions: compound 500 µM, unlabelled EcDsbA 10 µM, 298 K
Excerpt: as §1, §2

T1 sequence (P0AEG4 20-208): as above

SMILES: COc1ccc(Nc2ccc3c(CC(=O)O)coc3c2)cc1 [compound 16, 2-(6-((4-Methoxyphenyl)amino)benzofuran-3-yl)acetic acid]
- Kd (15N-labelled EcDsbA): 2700 ± 920 µM
- Ligand Efficiency (15N-labelled EcDsbA): 0.16 kcal mol^−1 HAC^−1
- Crystal Structure in EcDsbA (EcDsbA [1]): Yes
- CPMG (EcDsbA [2]): Pass
- STD (EcDsbA [3]): Fail
- wLOGSY (EcDsbA [4]): Pass
- melting point: 120 to 122 °C

SMILES: O=C(O)Cc1coc2cc(Oc3ccccc3)ccc12 [compound 25, 2-(6-Phenoxybenzofuran-3-yl)acetic acid]
- Kd (15N-labelled EcDsbA): 326 ± 25 µM
- Ligand Efficiency (15N-labelled EcDsbA): 0.24 kcal mol^−1 HAC^−1
- Crystal Structure in EcDsbA (EcDsbA [1]): Yes
- CPMG (EcDsbA [2]): Pass
- STD (EcDsbA [3]): Pass
- wLOGSY (EcDsbA [4]): Pass

- melting point: 179 to 182 °C
SMILES: O=C(O)C(NS(=O)(=O)c1ccccc1)c1coc2cc(Br)ccc12 (centres unmarked)

SMILES: O=C(O)Cc1c[nH]c2cc(-c3ccccc3)ccc12 [compound 36, 2-(6-Phenyl-1H-indol-3-yl)acetic acid]
- Crystal Structure in EcDsbA (EcDsbA [1]): lack of electron density and No
- CPMG (EcDsbA [2]): Pass
- STD (EcDsbA [3]): Pass
- wLOGSY (EcDsbA [4]): Pass

SMILES: COc1ccc(CC(=O)NC(C(=O)O)c2coc3cc(Br)ccc23)cc1 (centres unmarked) [compound 48, 2-(6-Bromobenzofuran-3-yl)-2-(2-(4-methoxyphenyl)acetamido)acetic acid]
- Kd (15N-labelled EcDsbA): 1350 ± 420 µM
- Ligand Efficiency (15N-labelled EcDsbA): 0.15 kcal mol^−1 HAC^−1
- Crystal Structure in EcDsbA (EcDsbA [1]): No
- CPMG (EcDsbA [2]): Fail
- STD (EcDsbA [3]): Fail
- wLOGSY (EcDsbA [4]): Pass
- melting point: 159 to 161 °C

SMILES: O=C(O)Cc1coc2cc(Cc3ccccc3)ccc12 [compound 28, 2-(6-Benzylbenzofuran-3-yl)acetic acid]
- Kd (15N-labelled EcDsbA): 341 ± 47 µM
- Ligand Efficiency (15N-labelled EcDsbA): 0.24 kcal mol^−1 HAC^−1
- Crystal Structure in EcDsbA (EcDsbA [1]): Yes
- CPMG (EcDsbA [2]): Pass
- STD (EcDsbA [3]): Pass
- wLOGSY (EcDsbA [4]): Pass
- melting point: 124 to 127 °C

SMILES: CCCCOc1ccc2c(CC(=O)O)coc2c1 [compound 21, 2-(6-Butoxybenzofuran-3-yl)acetic acid]
- Kd (15N-labelled EcDsbA): 1970 ± 640 µM
- Ligand Efficiency (15N-labelled EcDsbA): 0.20 kcal mol^−1 HAC^−1
- fold decrease in binding affinity (15N-labelled EcDsbA): six-fold decrease
- Crystal Structure in EcDsbA (EcDsbA [1]): Yes
- CPMG (EcDsbA [2]): Pass
- STD (EcDsbA [3]): Pass
- wLOGSY (EcDsbA [4]): Pass
- melting point: 108 to 109 °C

SMILES: O=C(O)Cc1c[nH]c2cc(Br)ccc12 [compound 34, 2-(6-Bromo-1H-indol-3-yl)acetic acid]
- Crystal Structure in EcDsbA (EcDsbA [1]): lack of electron density

SMILES: O=C(O)Cc1coc2cc(Br)ccc12 [compound 6, 2-(6-Bromobenzofufran-3-yl)acetic acid]
- affinity to EcDsbA (15N-labelled EcDsbA; fragment hit from biophysical screening): high mM affinity

SMILES: Brc1ccc2c(Cc3nnn[nH]3)coc2c1 [compound 31, 5-((6-Bromobenzofuran-3-yl)methyl)-1H-tetrazole]
- Crystal Structure in EcDsbA (EcDsbA [1]): did not produce electron density and No
- CPMG (EcDsbA [2]): Pass
- STD (EcDsbA [3]): Pass
- wLOGSY (EcDsbA [4]): Pass

SMILES: COc1cccc(Oc2ccc3c(CC(=O)O)coc3c2)c1 [compound 26, 2-(6-(3-Methoxyphenoxy)benzofuran-3-yl)acetic acid]
- Kd (15N-labelled EcDsbA): 639 ± 87 µM
- Ligand Efficiency (15N-labelled EcDsbA): 0.20 kcal mol^−1 HAC^−1
- fold decrease in binding affinity (15N-labelled EcDsbA): 2 fold
- CPMG (EcDsbA [2]): Pass
- STD (EcDsbA [3]): Pass
- wLOGSY (EcDsbA [4]): Pass

SMILES: CS(=O)(=O)NC(C(=O)O)c1coc2cc(Br)ccc12 (centres unmarked) [compound 50, 2-(6-Bromobenzofuran-3-yl)-2-(methylsulfonamido)acetic acid]
- Crystal Structure in EcDsbA (EcDsbA [1]): Yes
- CPMG (EcDsbA [2]): Pass
- STD (EcDsbA [3]): Pass
- wLOGSY (EcDsbA [4]): Pass
- melting point: 140 to 142 °C

SMILES: CC(=O)NC(C(=O)O)c1coc2cc(Br)ccc12 (centres unmarked) [compound 46, 2-Acetamido-2-(6-bromobenzofuran-3-yl)acetic acid]
- Crystal Structure in EcDsbA (EcDsbA [1]): No
- CPMG (EcDsbA [2]): Fail
- STD (EcDsbA [3]): Fail
- wLOGSY (EcDsbA [4]): Pass
- melting point: 194 to 196 °C

SMILES: CC(C)COc1ccc2c(CC(=O)O)coc2c1 [compound 22, 2-(6-Isobutoxybenzofuran-3-yl)acetic acid]
- chemical shift perturbations (CSP) of hydrophobic groove residues (15N-labelled EcDsbA; single-point HSQC, compound at 1 mM): too small to determine KD
- Crystal Structure in EcDsbA (EcDsbA [1]): Yes
- CPMG (EcDsbA [2]): Pass
- STD (EcDsbA [3]): Fail
- wLOGSY (EcDsbA [4]): Fail

SMILES: O=C(Cc1ccccc1F)NC(C(=O)O)c1coc2cc(Br)ccc12 (centres unmarked) [compound 49, 2-(6-Bromobenzofuran-3-yl)-2-(2-(2-fluorophenyl)acetamido)acetic acid]
- Kd (15N-labelled EcDsbA): > 1000 µM
- Crystal Structure in EcDsbA (EcDsbA [1]): No
- CPMG (EcDsbA [2]): Fail
- STD (EcDsbA [3]): Fail
- wLOGSY (EcDsbA [4]): Pass
- melting point: 209 to 211 °C

SMILES: O=C(NC(C(=O)O)c1coc2cc(Br)ccc12)c1ccccc1 (centres unmarked) [compound 47, 2-Benzamido-2-(6-bromobenzofuran-3-yl)-2-acetic acid]
- Crystal Structure in EcDsbA (EcDsbA [1]): No
- CPMG (EcDsbA [2]): Fail
- STD (EcDsbA [3]): Fail
- wLOGSY (EcDsbA [4]): Pass
- melting point: 209 to 212 °C

SMILES: O=C(O)Cc1coc2ccc(OCc3ccccc3)cc12 [compound 24, 2-(5-(Benzyloxy)benzofuran-3-yl)acetic acid]
- Crystal Structure in EcDsbA (EcDsbA [1]): did not show clear enough electron density
- melting point: 147 to 149 °C

Reference: publication PMC6832960, “The Fragment-Based Development of a Benzofuran Hit as a New Class of Escherichia coli DsbA Inhibitors” (Molecules, 2019)
